Reference: patent US5262417A, “Antibacterial quinolone compounds” (The Upjohn Company, priority 1991, dated 1993)
Values after ≈ are worked out from the molar mass of the structure shown. Like-named read-outs stand apart in the source and are kept apart here.

Experiments:
Test in all cases: Minimum inhibitory concentration (MIC) by agar dilution
Type in all cases: cell-based
Enterobacter cloacae = system: Enterobacter cloacae
Description: (§1) Briefly, MIC values are determined in unsupplemented Mueller Hinton Agar (MHA). The compounds tested are diluted serially into molten MHA at 47° C. The agar is poured into petri dishes and allowed to harden. The various bacteria used for testing are grown overnight on MHA at 35° C. and transferred to Trypticase soy broth (TSB) until a turbidity of 0.5 McFarland standard is obtained. The bacteria are diluted one to 20 in TSB and inoculated on the plates (1 μl using a Steers replicator).
as §1, with “Compounds of this invention can also be tested for in vitro antimicrobial activity using standard testing procedures such as the determination of minimum inhibitory concentration (MIC) by agar dilution as described in "Methods for Dilution Antimicrobial Susceptibility Tests for Bacteria That Grow Aerobically" (MFT) published Jan. […] Briefly,” for “Briefly,”, “(1μl” for “(1 μl”

[1] = system: Acinetobacter calcoaceticus; settings: Acinetobacter calcoaceticus
Description: as §1, with “The antibacterial activity of the compounds of Formula IC was determined by using standard testing procedures such as the determination of minimum inhibitory concentration (MIC) by agar dilution as described in "Methods for Dilution Antimicrobial Susceptibility Tests for Bacteria That Grow Aerobically" (MFT) published January 1983 by the National Committee for Clinical Laboratory Standards, 771 East Lancaster Avenue, Villanova, Pa. 19084, USA. Briefly,” for “Briefly,”
(§2) Compounds of this invention can also be tested for in vitro antimicrobial activity using standard testing procedures such as the determination of minimum inhibitory concentration (MIC) by agar dilution as described in "Methods for Dilution Antimicrobial Susceptibility Tests for Bacteria That Grow Aerobically" (MFT) published Jan. 1983 by the National Committee for Clinical Laboratory Standards, 771 East Lancaster Avenue, Villanova, Penna. 19084, USA. Briefly, MIC values are determined in unsupplemented Mueller Hinton Agar (MHA). The compounds tested are diluted serially into molten MHA at 47° C. The agar is poured into petri dishes and allowed to harden. The various bacteria used for testing are grown overnight on MHA at 35° C. and transferred to Trypticase soy broth (TSB) until a turbidity of 0.5 McFarland standard is obtained. The bacteria are diluted one to 20 in TSB and inoculated on the plates (1μl using a Steers replicator). […] The MIC test results of selected of Formula B compounds of this invention are found in Tables B2-B9.

Citerobacter freundii = system: Citerobacter freundii
Description: (§3) The antibacterial activity of the compounds of Formula IC was determined by using standard testing procedures such as the determination of minimum inhibitory concentration (MIC) by agar dilution as described in "Methods for Dilution Antimicrobial Susceptibility Tests for Bacteria That Grow Aerobically" (MFT) published January 1983 by the National Committee for Clinical Laboratory Standards, 771 East Lancaster Avenue, Villanova, Pa. 19084, USA. Briefly, MIC values are determined in unsupplemented Mueller Hinton Agar (MHA). The compounds tested are diluted serially into molten MHA at 47° C. The agar is poured into petri dishes and allowed to harden. The various bacteria used for testing are grown overnight on MHA at 35° C. and transferred to Trypticase soy broth (TSB) until a turbidity of 0.5 McFarland standard is obtained. The bacteria are diluted one to 20 in TSB and inoculated on the plates (1 μl using a Steers replicator).
as §2

Escherichia coli = settings: Escherichia coli
Description: as §3, §2

Klebsiella pneumoniae = system: Klebsiella pneumoniae
Description: as §3, §2

Proteus penneri = settings: Proteus penneri
Description: as §3, §2

Pseudomonas aeruginosa = settings: Pseudomonas aeruginosa
Description: as §3, §2

Serratia marcescens = settings: 20 h, read-out: MINIMUM INHIBITORY CONCENTRATION
Description: as §3, §2

Staphylococcus aureus = settings: Staphylococcus aureus
Description: as §3, §2

[2] = system: Staphylococcus epidermidis; settings: 20 h
Description: as §3, §2

Streptococcus faecalis = settings: Enterococcus faecalis
Description: as §3, §2

Streptococcus pneumoniae = settings: Streptococcus pneumoniae
Description: as §3, §2

Streptococcus pyogenes = settings: Streptococcus pyogenes
Description: as §3, §2

[3] = UC9382, 20 h, read-out: Minimum Inhibitory Concentration
[4] = UC12170, 20 h, read-out: Minimum Inhibitory Concentration, A. calcoaceticus UC 12170, Table CI
[5] = Citrobacter freundii, UC3507, 20 h, read-out: Minimum Inhibitory Concentration
[6] = UC6674, 20 h, read-out: Minimum Inhibitory Concentration, E. coli UC 6674, Table CI
[7] = UC9451, 20 h, read-out: Minimum Inhibitory Concentration, E. coli UC 9451, Table CI
[8] = UC9855, 20 h, read-out: Minimum Inhibitory Concentration, E. coli UC 9855, Table CI
[9] = UC9952, 20 h, read-out: Minimum Inhibitory Concentration, E. coli UC 9952, Table CI
[10] = UC12081, 20 h, read-out: Minimum Inhibitory Concentration
[11] = UC9679, 20 h, read-out: Minimum Inhibitory Concentration, P. penneri UC 9679, Table CI
[12] = UC6676, 20 h, read-out: Minimum Inhibitory Concentration, Ps. aeruginosa UC 6676, Table CI
[13] = UC9191, 20 h, read-out: Minimum Inhibitory Concentration, Ps. aeruginosa UC 9191, Table CI
[14] = UC12120, 20 h, read-out: Minimum Inhibitory Concentration, Ps. aeruginosa UC 12120, Table CI
[15] = UC6685, 20 h, read-out: Minimum Inhibitory Concentration, S. aureus UC 6685, Table CI
[16] = UC9213, 20 h, read-out: Minimum Inhibitory Concentration, S. aureus UC 9213, Table CI
[17] = UC9218, 20 h, read-out: Minimum Inhibitory Concentration, S. aureus UC 9218, Table CI
[18] = UC9271, 20 h, read-out: Minimum Inhibitory Concentration, S. aureus UC 9271, Table CI
[19] = read-out: Minimum Inhibitory Concentration
[20] = UC9217, 20 h, read-out: Minimum Inhibitory Concentration
[21] = UC41, 20 h, read-out: Minimum Inhibitory Concentration, S. pneumoniae UC 41, Table CI
[22] = UC152, 20 h, read-out: Minimum Inhibitory Concentration, S. pyogenes UC 152, Table CI
[23] = 20 h, read-out: MINIMUM INHIBITORY CONCENTRATION

Structure (SMILES) | MIC (Enterobacter cloacae; [3]) [µg/mL] | MIC [1, 4] [µg/mL] | MIC (Citerobacter freundii; [5]) [µg/mL] | MIC (Escherichia coli; [6]) [µg/mL] | MIC (Escherichia coli; [7]) [µg/mL] | MIC (Escherichia coli; [8]) [µg/mL] | MIC (Escherichia coli; [9]) [µg/mL] | MIC (Klebsiella pneumoniae; [10]) [µg/mL] | MIC (Proteus penneri; [11]) [µg/mL] | MIC (Pseudomonas aeruginosa; [12]) [µg/mL] | MIC (Pseudomonas aeruginosa; [13]) [µg/mL] | MIC (Pseudomonas aeruginosa; [14]) [µg/mL] | MIC (Serratia marcescens) [µg/mL] | MIC (Staphylococcus aureus; [15]) [µg/mL] | MIC (Staphylococcus aureus; [16]) [µg/mL] | MIC (Staphylococcus aureus; [17]) [µg/mL] | MIC (Staphylococcus aureus; [18]) [µg/mL] | MIC [2, 19] [µg/mL] | MIC (Streptococcus faecalis; [20]) [µg/mL] | MIC (Streptococcus pneumoniae; [21]) [µg/mL] | also measured
C#CCn1cc(C(=O)O)c(=O)c2cc(F)c(N3CCNCC3)c(F)c21.CS(=O)(=O)O [C, (+,-)-6,8-difluoro-1,4-dihydro-4-oxo-7-(1-piperazinyl)-1-(2-propynyl)-3-quinolinecarboxylic acid methanesulfonate] | 1 | 8 | 1 | 1 | 2 | 2 | 1 | 2 | 1 | 16 | 8 | 8 | 0.25 | 32 | 32 | 32 | 32 | 16 | > 64 | > 64 | MIC (Streptococcus pyogenes; [22]): 32 µg/mL
O=C(O)c1cn(C23CC(C2)C3)c2nc(N3CCC(O)C3)c(F)cc2c1=O (racemic) [No. 91, 7-(3-hydroxy-1-pyrrolidinyl)-1-(bicyclo[1.1.1]pent-1-yl)-1,4-dihydro-6-fluoro-4-oxo-1,8-naphthyridine-3-carboxylic acid] |  |  |  |  |  |  |  |  |  |  |  |  | 1 (≈ 2.78 µM) |  |  |  |  |  |  |  | MIC (Enterobacter cloacae; [23]): 0.25 µg/mL (≈ 0.696 µM); MIC ([1]; 20 h, read-out: MINIMUM INHIBITORY CONCENTRATION, Cult No. 12170, MHA): 0.5 µg/mL (≈ 1.39 µM); MIC (Citerobacter freundii; [23]): 0.25 µg/mL (≈ 0.696 µM); MIC (Escherichia coli; 20 h, read-out: MINIMUM INHIBITORY CONCENTRATION, Cult No. 6674, MHA): 0.125 µg/mL (≈ 0.348 µM); MIC (Escherichia coli; 20 h, read-out: MINIMUM INHIBITORY CONCENTRATION, Cult No. 9451, MHA): 0.25 µg/mL (≈ 0.696 µM); MIC (Escherichia coli; 20 h, read-out: MINIMUM INHIBITORY CONCENTRATION, Cult No. 9855, MHA): 0.25 µg/mL (≈ 0.696 µM); MIC (Escherichia coli; 20 h, read-out: MINIMUM INHIBITORY CONCENTRATION, Cult No. 9952, MHA): 0.125 µg/mL (≈ 0.348 µM); MIC (Klebsiella pneumoniae; [23]): 0.5 µg/mL (≈ 1.39 µM); MIC (Proteus penneri; 20 h, read-out: MINIMUM INHIBITORY CONCENTRATION, Cult No. 9679, MHA): 1 µg/mL (≈ 2.78 µM); MIC (Pseudomonas aeruginosa; 20 h, read-out: MINIMUM INHIBITORY CONCENTRATION, Cult No. 6676, MHA): 4 µg/mL (≈ 11.1 µM); MIC (Pseudomonas aeruginosa; 20 h, read-out: MINIMUM INHIBITORY CONCENTRATION, Cult No. 9191, MHA): 2 µg/mL (≈ 5.57 µM); MIC (Pseudomonas aeruginosa; 20 h, read-out: MINIMUM INHIBITORY CONCENTRATION, Cult No. 12120, MHA): 2 µg/mL (≈ 5.57 µM); MIC (Staphylococcus aureus; 20 h, read-out: MINIMUM INHIBITORY CONCENTRATION, Cult No. 6685, MHA): 0.06 µg/mL (≈ 0.167 µM); MIC (Staphylococcus aureus; 20 h, read-out: MINIMUM INHIBITORY CONCENTRATION, Cult No. 9213, MHA): 0.125 µg/mL (≈ 0.348 µM); MIC (Staphylococcus aureus; 20 h, read-out: MINIMUM INHIBITORY CONCENTRATION, Cult No. 9218, MHA): 0.125 µg/mL (≈ 0.348 µM); MIC (Staphylococcus aureus; 20 h, read-out: MINIMUM INHIBITORY CONCENTRATION, Cult No. 9271, MHA): 0.125 µg/mL (≈ 0.348 µM); MIC ([2]; read-out: MINIMUM INHIBITORY CONCENTRATION): 0.125 µg/mL (≈ 0.348 µM); MIC (Streptococcus faecalis; [23]): 1 µg/mL (≈ 2.78 µM); MIC (Streptococcus pneumoniae; 20 h, read-out: MINIMUM INHIBITORY CONCENTRATION, Cult No. 41, MHA): 1 µg/mL (≈ 2.78 µM); MIC (Streptococcus pyogenes; 20 h, read-out: MINIMUM INHIBITORY CONCENTRATION, Cult No. 152, MHA): 2 µg/mL (≈ 5.57 µM)
C#CC(C)(C)n1cc(C(=O)O)c(=O)c2cc(F)c(N3CCNCC3)c(F)c21.CS(=O)(=O)O [A, (+,-)-6,8-difluoro-1,4-dihydro-1-(1,1-dimethyl-2-propynyl)-4-oxo-7-(1-piperazinyl)-3-quinolinecarboxylic acid methanesulfonate] | 0.25 | 1 | 0.25 | 0.25 | 0.25 | 0.25 | 0.25 | 0.5 | 1 | 4 | 2 | 2 | 2 | 2 | 4 | 2 | 2 | 1 | 8 | 8 | MIC (Streptococcus pyogenes; [22]): 8 µg/mL
